# Literature values as cited in patent US20100172981A1, “Ibuprofen-Effervescent Preparation Having a High Dissolution Rate and Method for the Production thereof” (Losan Pharma GMBH, priority 2006, published 2010).
# Conditions: general statement in the background section
smiles,measurement,value
CC(C)Cc1ccc(C(C)C(=O)O)cc1.[Na] (stereo not shown) [ibuprofen-sodium],"solubility / dissolution in water (words, background)",dissolves only slowly in water
